{
  "source": "patent US11174243B2",
  "about": "“Succinate forms and compositions of Bruton's tyrosine kinase inhibitors” (Sunesis Pharmaceuticals, Inc., priority 2016, dated 2021)",
  "key": {"[1]": {"tested_on": "CD86 expression", "assay": "CpG induced CD86 expression (flow cytometry)", "type": "cell-based, human", "conditions": "3.2 μM CpG stimulation, 1 μM", "protocol": "Methods: Primary CLL B cells were isolated from the whole blood of consented patients by FICOLL density centrifugation and rosette-sep negative selection. Annexin V and propidium iodide flow cytometry was used to measure patient CLL cell viability and 7AAD was used to measure viability in stromal co-culture. CD40 and CD86 expression was evaluated via flow cytometry subsequent to sustained 3.2 μM CpG stimulation. BCR signaling in primary CLL cells was investigated by immunoblot succeeding 1 hour treatment and following 1 hour or 24 hours of incubation with Compound 1 in XLA cell lines. MTS values were read after 24 hours of drug incubation. ITK inhibition was investigated via immunoblot after stimulation with anti-CD3 and anti-CD28 and incubation with Compound 1 for 1 hour. Compound 1 was used at a concentration of 1 μM in preclinical studies unless otherwise noted."}, "[2]": {"target": "T1, ITK (Homo sapiens, UniProt Q08881)", "T1 sequence (Q08881 1-620)": "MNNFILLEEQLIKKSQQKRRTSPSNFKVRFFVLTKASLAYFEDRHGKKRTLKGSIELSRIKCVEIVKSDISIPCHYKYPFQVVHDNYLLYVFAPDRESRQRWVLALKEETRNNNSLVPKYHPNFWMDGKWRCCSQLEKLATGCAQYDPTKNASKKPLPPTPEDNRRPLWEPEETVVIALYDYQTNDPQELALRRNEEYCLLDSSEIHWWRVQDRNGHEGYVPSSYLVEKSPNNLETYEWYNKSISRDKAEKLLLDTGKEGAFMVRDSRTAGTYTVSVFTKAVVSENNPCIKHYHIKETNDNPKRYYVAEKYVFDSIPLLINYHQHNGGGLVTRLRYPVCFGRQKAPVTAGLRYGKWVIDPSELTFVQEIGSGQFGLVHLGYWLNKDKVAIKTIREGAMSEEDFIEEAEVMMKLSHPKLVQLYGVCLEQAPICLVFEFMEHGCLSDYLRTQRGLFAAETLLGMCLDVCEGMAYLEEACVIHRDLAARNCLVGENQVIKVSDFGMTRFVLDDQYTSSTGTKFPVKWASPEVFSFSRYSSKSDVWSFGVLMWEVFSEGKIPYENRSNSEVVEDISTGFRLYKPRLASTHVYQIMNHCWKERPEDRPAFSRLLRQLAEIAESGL", "assay": "In vitro kinase assay, ITK"}, "[3]": {"target": "T2, TEC (Homo sapiens, UniProt P42680)", "T2 sequence (P42680 1-631)": "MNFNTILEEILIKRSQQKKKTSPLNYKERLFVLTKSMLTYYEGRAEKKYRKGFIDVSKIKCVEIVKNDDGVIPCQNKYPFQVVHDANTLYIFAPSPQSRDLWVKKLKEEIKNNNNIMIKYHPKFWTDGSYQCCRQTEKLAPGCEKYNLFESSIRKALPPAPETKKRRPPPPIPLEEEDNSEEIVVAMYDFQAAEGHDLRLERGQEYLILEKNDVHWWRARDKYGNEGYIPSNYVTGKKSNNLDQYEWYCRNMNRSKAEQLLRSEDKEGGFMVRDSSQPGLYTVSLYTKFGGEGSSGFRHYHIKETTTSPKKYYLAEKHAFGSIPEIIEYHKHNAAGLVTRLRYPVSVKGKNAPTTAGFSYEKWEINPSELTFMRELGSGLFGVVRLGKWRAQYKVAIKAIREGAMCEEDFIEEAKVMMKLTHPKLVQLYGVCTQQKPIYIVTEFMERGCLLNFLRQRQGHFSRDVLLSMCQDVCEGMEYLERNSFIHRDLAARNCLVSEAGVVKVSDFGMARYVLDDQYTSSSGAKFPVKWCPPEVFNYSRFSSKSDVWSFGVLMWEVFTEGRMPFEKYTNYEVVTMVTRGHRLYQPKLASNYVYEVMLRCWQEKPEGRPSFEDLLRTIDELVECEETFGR", "assay": "In vitro kinase assay, TEC"}, "[4]": {"target": "human recombinant WT BTK (Homo sapiens, UniProt Q06187)", "sequence (Q06187 whole entry)": "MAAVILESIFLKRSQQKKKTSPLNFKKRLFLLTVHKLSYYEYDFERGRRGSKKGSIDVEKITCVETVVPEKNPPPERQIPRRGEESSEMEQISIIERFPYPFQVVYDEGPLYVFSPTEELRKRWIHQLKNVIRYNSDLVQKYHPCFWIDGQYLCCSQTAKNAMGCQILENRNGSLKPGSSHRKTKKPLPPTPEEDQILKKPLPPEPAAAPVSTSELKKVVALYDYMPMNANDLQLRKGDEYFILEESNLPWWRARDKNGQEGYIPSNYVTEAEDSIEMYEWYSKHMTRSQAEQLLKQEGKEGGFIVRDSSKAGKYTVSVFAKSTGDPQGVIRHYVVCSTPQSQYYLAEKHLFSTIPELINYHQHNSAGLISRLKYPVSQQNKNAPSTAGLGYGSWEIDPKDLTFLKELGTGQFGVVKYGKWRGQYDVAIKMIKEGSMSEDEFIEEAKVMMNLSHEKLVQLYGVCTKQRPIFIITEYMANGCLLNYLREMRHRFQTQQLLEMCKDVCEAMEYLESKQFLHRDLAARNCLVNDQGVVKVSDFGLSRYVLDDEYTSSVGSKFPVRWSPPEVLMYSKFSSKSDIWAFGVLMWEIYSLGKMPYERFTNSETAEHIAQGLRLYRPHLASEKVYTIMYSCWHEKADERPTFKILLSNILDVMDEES", "assay": "FRET recombinant kinase assay, WT BTK", "type": "biochemical"}, "[5]": {"assay": "Single-dose PK in dog", "type": "in vivo, male beagle dogs", "conditions": "beagle, plasma", "protocol": "(§1) A series of single-dose PK studies were conducted in rat, dog, and monkey to investigate the plasma PK of Compound 2 following single oral and single intravenous (IV) administration of Compound 2.\nA study was conducted to assess the PK of Compound 2 formulated as a suspension or as a solid in capsule. […] Three different dogs were used for each dose level. […] Inter-animal variability in Compound 2 free base plasma systemic exposure was observed after IV and oral administration irrespective of formulation."}, "[6]": {"assay": "Phase 1a single-dose study in humans: safety", "type": "in vivo, human", "protocol": "A first-in-human Phase 1a randomized, double-blind, placebo-controlled, single-dose study, was conducted in 3 stages: In Stage 1, four sequential cohorts of 8 subjects each were randomly assigned to receive progressively higher single oral administrations of Compound 2 at doses of 50, 100, 200, and 300 mg (n=6 per cohort; 3 males and 3 females) or placebo (n=2 per cohort; 1 male and 1 female).\nThe primary endpoint of safety was assessed by monitoring adverse events (AEs), laboratory abnormalities, and cardiac findings (ECG). Secondary endpoints included evaluation of the PK parameters of area under the plasma concentration-time curve (AUC), maximum plasma concentration (Cmax), time of maximum concentration (Tmax), apparent volume of distribution (Vd/F), terminal elimination half-life (t1/2), terminal elimination rate constant (λz), and apparent clearance (Cl/F) as well as the PD parameter of BTK inhibition in whole blood."}, "[7]": {"assay": "Single-dose PK in monkey", "type": "in vivo", "conditions": "male, cynomolgus monkey, plasma", "protocol": "as §1\nThe PK of Compound 2 was studied in the male cynomolgus monkey (n=3) following single IV administration of Compound 2 at 1 mg/kg and single oral administration at 5 mg/kg (DRN105-0042). Following each administration, serial blood samples were collected at 0.08, 0.25, 0.5, 1, 2, 4, 7, 16, and 24 hours postdose."}, "[8]": {"conditions": "1 mg/kg, IV, dose 1, 70% PEG400/H2O, free base measured"}, "[9]": {"conditions": "male, 5 mg/kg, PO, dose not given, 0.1% CMC/0.2% Tween, free base measured"}, "[10]": {"conditions": "5 mg/kg, PO, dose 5, 0.1% CMC/0.2% Tween, free base measured"}},
  "note": "pIC50: −log10 of the molar value.",
  "data": [
    {"smiles": "NC(=O)[C@H]1CCN(c2ncnc(N)c2F)C[C@@H]1N1CCC[C@@H](Nc2cc(Cl)cc(C(F)(F)F)c2)C1=O", "note": "[Compound 1, (3R,3′R,4′S)-1′-(6-amino-5-fluoropyrimidin-4-yl)-3-((3-chloro-5-(trifluoromethyl)phenyl)amino)-2-oxo-[1,3′-bipiperidine]-4′-carboxamide]", "values": [
      {"measurement": "decrease of CpG induced CD86 expression", "setting": "[1]", "result": 15.7, "unit": "%"},
      {"measurement": "pIC50", "setting": "[2]", "result": 7.62},
      {"measurement": "pIC50", "setting": "[3]", "result": 7.72},
      {"measurement": "pIC50", "setting": "[4]", "result": 8.34}
    ]},
    {"smiles": "NC(=O)[C@H]1CCN(c2ncnc(N)c2F)C[C@@H]1N1CCC[C@@H](Nc2cc(Cl)cc(C(F)(F)F)c2)C1=O", "note": "[Compound 2]", "values": [
      {"measurement": "AUC(0-inf)", "setting": "[5]; [8]", "result": 1080, "unit": "ng·h/mL"},
      {"measurement": "C0", "setting": "[5]; [8]", "result": 1920, "unit": "ng/mL"},
      {"measurement": "half-life", "setting": "[5]; [8]", "result": 0.8, "unit": "h"},
      {"measurement": "AUC(0-inf)", "setting": "[5]; [9]", "result": 3520, "unit": "ng·h/mL"},
      {"measurement": "Cmax", "setting": "[5]; [9]", "result": 2970, "unit": "ng/mL"},
      {"measurement": "Tmax", "setting": "[5]; [9]", "result": 0.8, "unit": "h"},
      {"measurement": "bioavailability", "setting": "[5]; male, 5 mg/kg, PO, dose not given, 0.1% CMC/0.2% Tween, read-out: % F (oral bioavailability)", "result": 65, "unit": "%"},
      {"measurement": "subjects with treatment-emergent AEs (TEAEs)", "setting": "[6]; 24 subjects, single oral doses 50-300 mg, 8 subjects", "result": 33, "unit": "%"},
      {"measurement": "subjects with treatment-related TEAEs", "setting": "[6]; 24 subjects, single oral doses 50-300 mg, six subjects", "result": 25, "unit": "%"},
      {"measurement": "Grade 3 or higher AEs", "setting": "[6]; single oral doses", "result": "No Grade 3 or higher AEs were reported"},
      {"measurement": "SAEs", "setting": "[6]; single oral doses", "result": "No SAEs were reported"},
      {"measurement": "dose-dependent toxicity", "setting": "[6]; single oral doses 50-300 mg", "result": "No obvious pattern of dose-dependent toxicity was observed"},
      {"measurement": "AUC(0-inf)", "setting": "[7]; [8]", "result": 1920, "unit": "ng·h/mL"},
      {"measurement": "C0", "setting": "[7]; [8]", "result": 1600, "unit": "ng/mL"},
      {"measurement": "half-life", "setting": "[7]; [8]", "result": 1.9, "unit": "h"},
      {"measurement": "AUC(0-inf)", "setting": "[7]; [10]", "result": 3220, "unit": "ng·h/mL"},
      {"measurement": "Cmax", "setting": "[7]; [10]", "result": 1400, "unit": "ng/mL"},
      {"measurement": "Tmax", "setting": "[7]; [10]", "result": 1.5, "unit": "h"},
      {"measurement": "bioavailability", "setting": "[7]; 5 mg/kg, PO, dose 5, 0.1% CMC/0.2% Tween, read-out: % F (oral bioavailability)", "result": 33, "unit": "%"}
    ]}
  ]
}
